Experimental data reported in patent US5264429A, “2-spirocyclopropyl cephalosporin sulfone derivatives” (SynPhar Laboratories, Inc., priority 1991, dated 1993).

How the values were obtained:
[1] = molecular target: T1, human leukocyte elastase (HLE) (Homo sapiens, UniProt P08246); assay: Enzyme Assay for Inhibition of HLE; assay type: biochemical; conditions: HLE 10 nM, pH 7.6, 10 minute preincubation, 30° C.
T1 construct: from tissue; host or cells: human white blood cells
T1 sequence (P08246 30-247 limits assumed): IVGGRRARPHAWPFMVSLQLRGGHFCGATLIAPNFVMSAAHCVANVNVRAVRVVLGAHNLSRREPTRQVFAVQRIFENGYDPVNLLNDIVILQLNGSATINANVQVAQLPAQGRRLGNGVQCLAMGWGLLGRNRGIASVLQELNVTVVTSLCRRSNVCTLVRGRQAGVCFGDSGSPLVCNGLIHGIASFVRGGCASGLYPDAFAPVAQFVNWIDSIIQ
Method: Enzyme Assay for Inhibition of HLE:
Enzyme: Purified elastase from human white blood cells.
Substrate: MeO-succinyl-L-alanyl-L-alanyl-L-prolyl-L-valine-p-nitro-anilide(NA).
Reaction Mixture: 10 mM phosphate buffer (pH 7.6), 500 mM NaCl, 10% dimethylsulfoxide (DMSO), 0.35 mM substrate.
The enzyme activity was determined by monitoring the increase in absorbance at 410 nm caused by the hydrolysis of chromogenic substrates. Inhibition of enzyme by the compounds described were determined after a 10 minute preincubation with the enzyme in reaction mixture minus substrate. Reaction was initiated by the addition of substrate. The concentration of human leukocyte elastase used for assay was at 10 nM.
HLE, CTG, PPE and CTD were tested at 30° C. and the others were […]

[2] = molecular target: T2, trypsin (Bos taurus, UniProt P00760); assay: Inhibition of trypsin (TRY); assay type: biochemical, bovine; conditions: trypsin, pH 8.8, 10 minute preincubation, 22° C.; read-out: IC50 TRY (converted)
T2 construct: from tissue; host or cells: bovine pancreas
T2 sequence (P00760 24-246): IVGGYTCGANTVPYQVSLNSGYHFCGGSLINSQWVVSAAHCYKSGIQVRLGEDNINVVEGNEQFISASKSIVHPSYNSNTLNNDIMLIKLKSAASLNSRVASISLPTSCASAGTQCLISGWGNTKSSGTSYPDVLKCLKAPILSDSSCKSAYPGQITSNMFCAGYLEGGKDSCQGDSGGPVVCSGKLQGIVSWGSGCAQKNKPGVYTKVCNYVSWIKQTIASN
Method: Enzyme: Purified trypsin from bovine pancreas
Substrate: Bz-L-arginine-p-NA
Reaction mixture: 50 mM Tricine[N-Tris(hydroxymethyl)methylglycine]-NaOH buffer (pH 8.8) 150 mM NaCl, 10% DMSO 1.0 mM Substrate.
Inhibition of enzymes by the compounds described were determined after a 10 minute preincubation with enzymes in reaction mixtures minus substrate. Reactions were initiated by the addition of substrates. […] All other proteases were assayed at the concentrations that produced approximately 0.1 O.D. change per minute at 410 nm under the standard conditions.

[3] = molecular target: T3, thrombin (Homo sapiens, UniProt P00734); assay: Inhibition of thrombin (THR); assay type: biochemical; conditions: pH 8.6, 10 minute preincubation, 22° C.
T3 construct: from tissue; host or cells: human plasma
Method: (§1) HLE, CTG, PPE and CTD were tested at 30° C. and the others were
(§2) TRY, trypsin; THR, thrombin; PTH, plasmin; CTC, cathepsin C; ATM,
Enzyme: Purified thrombin from human plasma
Substrate: Tosyl-glycyl-L-prolyl-L-arginine-p-NA acetate
Reaction mixture: 50 mM Tricine-NaOH buffer (pH 8.6), 500 mM NaCl, 0.1% Polyethyleneglycol 8000, 10% DMSO, 0.5 mM Substrate.
(§3) Except for Cathepsin D, the enzyme activities were determined by monitoring the increase in absorbance at 410 nm caused by the hydrolysis of chromogenic substrates. The activity of Cathepsin D was determined by monitoring the absorbance of 5% trichloroacetic acid-soluble material at 280 nm.
(§4) Inhibition of enzymes by the compounds described were determined after a 10 minute preincubation with enzymes in reaction mixtures minus substrate. Reactions were initiated by the addition of substrates. The concentration used for assays were porcine pancreatic elastase at 240 nM and human Cathepsin G at 50 nM. Cathepsin D was used at the concentration that produced approximately 0.15 O.D. increase per 20 min at 280 nm under the standard conditions. All other proteases were assayed at the concentrations that produced approximately 0.1 O.D. change per minute at 410 nm under the standard conditions.

[4] = molecular target: T4, plasmin (Homo sapiens, UniProt P00747); assay: Inhibition of plasmin (PTH); assay type: biochemical; conditions: pH 8.9, 10 minute preincubation, 22° C.
T4 construct: from tissue; host or cells: human plasma
Method: as §1, §2
Enzyme: Purified plasmin from human plasma Substrate: Tosyl-glyclyl-L-prolyl-L-lysine-pNA acetate
Reaction mixture: 50 mM Tris-HCl buffer (pH 8.9), 500 mM NaCl, 5% DMSO, 0.5 mM Substrate.
as §3, §4

[5] = molecular target: T5, cathepsin C (Bos taurus, UniProt Q3ZCJ8); assay: Inhibition of cathepsin C (CTC); assay type: biochemical, bovine; conditions: cathepsin C, pH 5.4, 10 minute preincubation, 22° C.; read-out: IC50 CTC
T5 construct: from tissue; host or cells: bovine spleen
Method: as §1, §2
Enzyme: Purified cathepsin C from bovine spleen
Substrate: Glycyl-L-phenylalanine-pNA
Reaction mixture: 50 mM Citrate buffer (pH 5.4), 5 mM B-Mercaptoethanol, 150 mM NaCl, 10% DMSO, 20 mM Substrate.
as §3, §4

[6] = molecular target: T6, aminopeptidase M (Sus scrofa, UniProt P15145); assay: Inhibition of aminopeptidase M (ATM); assay type: biochemical, porcine; conditions: aminopeptidase M, pH 7.5, 10 minute preincubation, 22° C.; read-out: IC50 ATM
T6 construct: from tissue; host or cells: porcine kidney
T6 sequence (P15145 1-963): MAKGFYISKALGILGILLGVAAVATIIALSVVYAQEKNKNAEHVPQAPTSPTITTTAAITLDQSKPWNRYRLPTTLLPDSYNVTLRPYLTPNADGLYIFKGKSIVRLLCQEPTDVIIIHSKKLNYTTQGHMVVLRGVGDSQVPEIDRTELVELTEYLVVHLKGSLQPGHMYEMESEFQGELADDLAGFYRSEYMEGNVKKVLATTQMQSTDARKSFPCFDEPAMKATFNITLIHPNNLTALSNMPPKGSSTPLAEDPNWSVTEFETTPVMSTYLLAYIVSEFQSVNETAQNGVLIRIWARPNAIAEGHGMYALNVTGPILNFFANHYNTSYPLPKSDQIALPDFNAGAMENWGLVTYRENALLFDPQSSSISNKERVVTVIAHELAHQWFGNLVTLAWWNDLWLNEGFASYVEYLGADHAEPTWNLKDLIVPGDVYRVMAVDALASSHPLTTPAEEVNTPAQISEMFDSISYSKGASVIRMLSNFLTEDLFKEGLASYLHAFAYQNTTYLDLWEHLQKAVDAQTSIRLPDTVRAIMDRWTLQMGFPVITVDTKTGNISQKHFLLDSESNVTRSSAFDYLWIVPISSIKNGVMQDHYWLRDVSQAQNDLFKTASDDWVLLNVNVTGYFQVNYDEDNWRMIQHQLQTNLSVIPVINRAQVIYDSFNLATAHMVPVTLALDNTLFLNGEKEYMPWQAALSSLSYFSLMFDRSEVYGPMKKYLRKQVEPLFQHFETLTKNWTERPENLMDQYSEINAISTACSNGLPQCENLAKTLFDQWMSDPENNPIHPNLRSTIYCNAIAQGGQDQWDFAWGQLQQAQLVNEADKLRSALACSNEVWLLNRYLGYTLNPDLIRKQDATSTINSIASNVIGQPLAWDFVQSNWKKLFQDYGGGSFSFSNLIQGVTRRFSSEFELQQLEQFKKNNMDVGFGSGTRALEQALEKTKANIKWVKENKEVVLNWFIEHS
Method: as §1, §2
aminopeptidase M; CTG, cathespin G; CTD, cathespin D; PPE, porcine
Enzyme: Purified aminopeptidase M from porcine kidney
Reaction Mixture: 50 mM Tricine buffer (pH 7.5), 500 mM NaCl, 10% DMSO, 2.0 mM Substrate.
as §3, §4

[7] = molecular target: T7, cathepsin G (Homo sapiens, UniProt P08311); assay: Inhibition of cathepsin G (CTG); assay type: biochemical; conditions: cathepsin G 50 nM, pH 7.5, 10 minute preincubation, 30° C.; read-out: IC50 CTG (converted)
T7 construct: from tissue; host or cells: human white blood cells
T7 sequence (P08311 21-244 limits assumed): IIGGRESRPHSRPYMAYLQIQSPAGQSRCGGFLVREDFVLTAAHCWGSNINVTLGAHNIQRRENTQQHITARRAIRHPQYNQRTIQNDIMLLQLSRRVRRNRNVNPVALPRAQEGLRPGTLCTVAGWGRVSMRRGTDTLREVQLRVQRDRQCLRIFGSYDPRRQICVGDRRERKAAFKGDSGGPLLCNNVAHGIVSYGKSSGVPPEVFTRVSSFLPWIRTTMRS
Method: Enzyme: Purified Cathepsin G from human white blood cells
Substrate: N-succinyl-L-alanyl-L-alanyl-L-phenylalanyl-L-phenylalanine -p-NA.
Reaction mixture: 10 mM Phosphate buffer (pH 7.5), 500 mM NaCl, 10% DMSO, 2.0 mM Substrate.

[8] = molecular target: T8, cathepsin D (Bos taurus, UniProt P80209); assay: Inhibition of cathepsin D (CTD); assay type: biochemical, bovine
T8 construct: from tissue; host or cells: bovine spleen
Method: as §4, with “Except for Cathepsin D, the enzyme activities were determined by monitoring the increase in absorbance at 410 nm caused by the hydrolysis of chromogenic substrates. The activity of Cathepsin D was determined by monitoring the absorbance of 5% trichloroacetic acid-soluble material at 280 nm. Inhibition” for “Inhibition”, “The concentration used for assays were porcine pancreatic elastase at 240 nM and human Cathepsin G at 50 nM.” left out

T8 sequence (P80209 45-390): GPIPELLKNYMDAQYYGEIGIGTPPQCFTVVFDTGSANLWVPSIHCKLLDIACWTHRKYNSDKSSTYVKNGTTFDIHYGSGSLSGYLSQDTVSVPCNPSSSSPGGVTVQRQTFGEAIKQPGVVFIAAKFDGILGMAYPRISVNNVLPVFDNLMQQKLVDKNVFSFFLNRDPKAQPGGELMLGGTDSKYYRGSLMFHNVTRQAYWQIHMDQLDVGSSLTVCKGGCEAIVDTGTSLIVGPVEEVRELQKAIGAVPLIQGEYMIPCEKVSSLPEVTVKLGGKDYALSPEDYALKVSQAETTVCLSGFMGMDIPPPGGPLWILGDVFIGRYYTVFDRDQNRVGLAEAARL
T5 sequence (Q3ZCJ8 231-394 limits assumed): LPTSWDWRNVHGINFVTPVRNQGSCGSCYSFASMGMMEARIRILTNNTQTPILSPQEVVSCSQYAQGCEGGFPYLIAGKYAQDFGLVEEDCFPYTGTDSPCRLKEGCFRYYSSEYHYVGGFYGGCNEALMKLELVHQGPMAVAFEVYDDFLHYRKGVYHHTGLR
T5 sequence (Q3ZCJ8 395-463 limits assumed): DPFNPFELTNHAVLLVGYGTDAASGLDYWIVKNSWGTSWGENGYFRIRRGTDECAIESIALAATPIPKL
T5 sequence (Q3ZCJ8 25-134 limits assumed): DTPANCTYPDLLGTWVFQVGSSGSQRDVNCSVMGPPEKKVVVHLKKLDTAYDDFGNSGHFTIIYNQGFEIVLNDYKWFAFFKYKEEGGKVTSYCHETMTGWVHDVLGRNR
T4 sequence (P00747 581-810 limits assumed): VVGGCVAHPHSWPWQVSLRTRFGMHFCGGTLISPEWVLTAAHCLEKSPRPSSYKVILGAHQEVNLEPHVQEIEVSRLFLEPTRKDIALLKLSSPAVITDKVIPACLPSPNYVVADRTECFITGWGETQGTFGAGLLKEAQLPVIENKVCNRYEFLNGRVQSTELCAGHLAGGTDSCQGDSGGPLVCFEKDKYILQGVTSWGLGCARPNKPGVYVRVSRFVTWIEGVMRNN
T4 sequence (P00747 97-580 partner limits assumed): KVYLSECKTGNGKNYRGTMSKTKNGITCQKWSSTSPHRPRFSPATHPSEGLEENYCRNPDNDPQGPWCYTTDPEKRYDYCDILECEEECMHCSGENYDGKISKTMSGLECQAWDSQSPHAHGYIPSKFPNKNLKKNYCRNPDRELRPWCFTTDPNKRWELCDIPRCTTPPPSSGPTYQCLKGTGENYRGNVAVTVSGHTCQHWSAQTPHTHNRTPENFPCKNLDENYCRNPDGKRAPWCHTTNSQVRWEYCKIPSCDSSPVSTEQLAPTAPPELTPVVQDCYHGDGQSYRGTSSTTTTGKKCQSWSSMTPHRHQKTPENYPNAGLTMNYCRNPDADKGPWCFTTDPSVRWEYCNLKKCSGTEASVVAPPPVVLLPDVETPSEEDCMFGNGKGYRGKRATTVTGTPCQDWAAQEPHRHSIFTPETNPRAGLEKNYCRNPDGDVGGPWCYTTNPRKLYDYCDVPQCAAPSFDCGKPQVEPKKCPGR

`Cc1nnc(SCC2=C(C(=O)OC(c3ccccc3)c3ccccc3)N3C(=O)[C@H](Br)[C@H]3[S+]([O-])C23CC3(c2ccc(Cl)cc2)c2ccc(Cl)cc2)s1` (stereo partly drawn) [Benzhydryl-7α-bromo-2-spiro[2',2'-(4',4'-dichloro)diphenyl]-cyclopropyl-3-[(5-methyl-1,3,4-thiadiazol-2-yl)thiomethyl]-3-cephem-4-carboxylate-1-oxide] was tested, and the IC50 [1] was 48.9 nM.

`CC(=O)OCC1=C(C(=O)OC(C)(C)C)N2C(=O)[C@H](Cl)[C@H]2S(=O)(=O)C12CC2(c1ccccc1)c1ccccc1` (stereo partly drawn) [Example 4, t-Butyl 7α-chloro-2-spiro(2',2'-diphenyl)cyclopropyl-3-acetoxymethyl-3-cephem-4-carboxylate-1,1-dioxide] gave an IC50 [1] of 91.4 nM.

For `CC1=C(C(=O)OC(c2ccccc2)c2ccccc2)N2C(=O)CC2S(=O)(=O)C12CC2(c1ccccc1)c1ccccc1` (stereo not shown) [Example 5, Benzhydryl 7,7-dihydro-2-spiro(2',2'-diphenyl)cyclopropyl-3-methyl-3-cephem-4-carboxylate-1,1-dioxide], the IC50 [1] was 149 nM.

With `CO[C@H]1C(=O)N2C(C(=O)N3CCCCC3)=C(C)C3(CC3(c3ccccc3)c3ccccc3)S(=O)(=O)[C@H]12` (stereo partly drawn) [Example 11, 7α-Methoxy-2-spiro (2',2'-diphenyl)cyclopropyl-3-methyl-3-cephem-4-piperidine carboxamide-1,1-dioxide] the IC50 [1] was 10.7 nM, the IC50 [2] was > 10000 nM and the IC50 [3] was > 39900 nM. For the same compound, the IC50 [4] was > 10000 nM, the IC50 [5] was > 10000 nM and the IC50 [6] was > 10000 nM. The IC50 [7] was > 10000 nM and the IC50 [8] was 31.6 nM.

`CC1=C(C(=O)OC(c2ccccc2)c2ccccc2)N2C(=O)[C@H](Br)[C@H]2S(=O)(=O)C12CC2c1ccccc1` (stereo partly drawn) [Example 13 (3), Benzhydryl 7α-bromo-2-spiro(2'-phenyl)cyclopropyl-3-methyl-3-cephem-4-carboxylate-1,1-dioxide] gave an IC50 [1] of 6.57 nM.

`COc1ccc(COC(=O)C2=C(CCl)C3(CC3(c3ccccc3)c3ccccc3)S(=O)(=O)[C@@H]3[C@@H](Br)C(=O)N23)cc1` (stereo partly drawn) [p-Methoxybenzyl 7α-bromo-2-spiro(2',2'-diphenyl) cyclopropyl-3-chloromethyl-3-cephem-4-carboxylate-1,1-dioxide] showed an IC50 [1] of 4.04 nM.
